{"source": "paper PMC12397098", "about": "“3-Monothiopomalidomide, a new immunomodulatory imide drug (IMiD), blunts inflammation and mitigates ischemic stroke in the rat” (GeroScience, 2025)", "key": {"[1]": {"assay": "Liver microsomal stability, rat"}, "[2]": {"assay": "Liver microsomal stability, human", "settings": "1 μM"}, "[3]": {"tested_on": "LPS-induced cytokines (TNF-α, IL-6, IL-10, IL-13) in plasma and cerebral cortex", "assay": "Systemic and brain LPS anti-inflammatory study in rats", "format": "in vivo", "settings": "rat, LPS 1 mg/kg, 4 h", "protocol": "They were administered, via the intraperitoneal (I.P.) route, nano-formulated 3-MP at a dose of 13.25 or 26.5 mg/kg (equimolar to a clinically translatable dose of 12.5 and 25 mg/kg thalidomide), vehicle or pomalidomide (25 mg/kg). One hour later, animals were administered either LPS (1 mg/kg, E.Coli 055:B5, Sigma Aldrich, in normal saline, 0.5 mg/mL) or an alike volume of saline (without LPS) via the I.P. route. The LPS dose was selected from prior pilot studies to provide a substantial but sub-maximal rise in plasma proinflammatory cytokine levels, in line with our prior research. The selected 3-MP and pomalidomide doses were chosen as they are equimolar to, or are less than, doses of thalidomide and analogues that have been verified to be well tolerated in our previous studies and are of translational relevance to humans. Four hours after LPS administration, the animals were euthanized, and blood and brain tissues were collected and placed on wet ice. Plasma was quickly separated from blood by centrifugation (10,000 × g, 5 min, 4 °C) and together with the brain samples (cerebral cortex) was stored at − 80 °C. At a later time, cerebral cortex samples were sonicated in a TRIS-based lysis buffer (Mesoscale Discovery) with 3 × protease/phosphatase inhibitors (Halt™ Protease and Phosphatase Inhibitor Cocktail, Thermo Fisher Scientific, Waltham, MA, USA). Samples were then centrifuged (10,000 × g, 5 min, 4 °C), supernatant separated, and protein concentrations were quantified by bicinchoninic acid assay (BCA, Thermo Fisher Scientific). Rat plasma and cerebral cortex samples were analyzed by multi-proinflammatory cytokine ELISA (V-PLEX Proinflammatory Panel 2 Rat Kit, Mesoscale Discovery) following the manufacturer’s protocol to quantify TNF-α, IL-6, IL-10, and IL-13 levels."}, "[4]": {"tested_on": "LPS-induced cytokines (TNF-α, IL-6, IL-10, IL-13) in plasma and cerebral cortex", "assay": "Systemic and brain LPS anti-inflammatory study in rats", "format": "in vivo", "settings": "rat, 1 h pre-treatment, 3-MP 13.23 and 26.47 mg/kg I.P., pomalidomide 25 mg/kg I.P., LPS 1 mg/kg I.P., 4 h"}, "[5]": {"set-up": "method as in earlier work", "settings": "rat; cited from earlier work"}, "[6]": {"set-up": "method as in earlier work", "settings": "nonhuman primate (cynomolgus monkey); cited from earlier work"}, "[7]": {"settings": "cited from earlier work"}, "[8]": {"settings": "Sprague Dawley, rat, microsomes, 1 h, 1 μM"}, "[9]": {"settings": "human, microsomes, 1 μM"}, "in vitro": {"assay": "in vitro", "settings": "Sprague Dawley, rat, microsomes"}, "[10]": {"assay": "Pharmacokinetic evaluations of 3,6’-DP in rats", "format": "in vivo, rat", "settings": "authors' recent pharmacokinetic evaluations, no data shown"}, "[11]": {"set-up": "method as in PMID 32589144", "settings": "cited from earlier work"}, "[12]": {"tested_on": "IL-1β, TNF-α and IL-10 levels in animals with MCAo", "set-up": "method as in PMID 35631536", "settings": "cited from earlier work"}, "[13]": {"settings": "Sprague Dawley, rat, microsomes"}}, "note": "Like-named read-outs stand apart in the source and are kept apart here.", "data": [{"compound": "C[C@]12CC[C@H]3[C@@H](CCC4=CC(=O)CC[C@@]43C)[C@@H]1CC[C@@H]2O", "note": "[Testosterone, testosterone]", "values": [{"measurement": "CLint scaled at 1 μM", "setting": "[1]; [13]", "value": 3910, "unit": "mL/min/kg"}, {"measurement": "microsomal CLint at 1 μM", "setting": "[1]; [13]", "value": 2170, "unit": "µL/min/mg"}, {"measurement": "Remaining (T = 60 min)", "setting": "[1]; rat liver microsomes with NADPH, 1 μM, 60 min", "value": 0.1, "unit": "%"}, {"measurement": "Remaining (NCF = 60 min)", "setting": "[1]; rat liver microsomes, no co-factor (no NADPH), 1 μM, 60 min", "value": 103.7, "unit": "%"}, {"measurement": "Remaining (T = 60 min)", "setting": "[2]; human liver microsomes with NADPH, 60 min", "value": 13.2, "unit": "%"}, {"measurement": "Clint(liver)", "setting": "[2]; human liver microsomes with NADPH, scaled from Clint(mic)", "value": 59.0, "unit": "mL/min/kg"}, {"measurement": "Remaining (NCF = 60 min)", "setting": "[2]; human liver microsomes, no co-factor (no NADPH), 60 min", "value": 97.1, "unit": "%"}]}, {"compound": "Nc1cccc2c1C(=O)N(C1CCC(=O)NC1=O)C2=O", "note": "(stereo not shown) [pomalidomide]", "values": [{"measurement": "LPS-mediated elevations in brain IL-13", "setting": "[3]; 3-MP both doses and pomalidomide I.P.", "value": "maintained"}, {"measurement": "decline in IL-6 brain levels", "setting": "[3]; 3-MP low dose 13.25 mg/kg I.P., pomalidomide 25 mg/kg I.P.", "value": "failed to achieve statistical significance"}, {"measurement": "IL-10 elevation induced by LPS in plasma or brain", "setting": "[3]; high- or low-dose 3-MP or pomalidomide I.P.", "value": "not lessened"}, {"measurement": "LPS-induced cytokine changes in plasma and cerebral cortex", "setting": "[4]", "value": "significantly mitigated"}, {"measurement": "bioavailability", "setting": "[5]", "value": 13, "unit": "%"}, {"measurement": "bioavailability", "setting": "[6]", "value": 15, "unit": "%"}, {"measurement": "brain/plasma concentration ratio", "setting": "[7]", "value": 0.71}]}, {"compound": "O=C(O)Cc1ccccc1Nc1c(Cl)cccc1Cl", "note": "[Diclofenac, diclofenac, reference compound]", "values": [{"measurement": "Remaining (NCF = 60 min)", "setting": "[8]", "value": 107.9, "unit": "%"}, {"measurement": "Remaining (T = 60 min)", "setting": "[8]", "value": 2.2, "unit": "%"}, {"measurement": "Clint(liver)", "setting": "[9]", "value": 292.3, "unit": "mL/min/kg"}, {"measurement": "Clint(mic)", "setting": "[9]", "value": 324.8, "unit": "µL/min/mg"}, {"measurement": "Remaining (NCF = 60 min)", "setting": "[9]; 1 h", "value": 101.0, "unit": "%"}, {"measurement": "Remaining (T = 60 min)", "setting": "[9]; 1 h", "value": 0.0, "unit": "%"}, {"measurement": "CLint scaled at 1 μM", "setting": "in vitro", "value": 227, "unit": "mL/min/kg"}, {"measurement": "microsomal CLint at 1 μM", "setting": "in vitro", "value": 126, "unit": "µL/min/mg"}]}, {"compound": "Nc1cccc2c1C(=S)N(C1CCC(=S)NC1=O)C2=O", "note": "(stereo not shown) [3,6’-DP, 3,6’-dithiopomalidomide]", "values": [{"measurement": "disappearance from plasma", "setting": "[10]", "value": "disappears relatively rapidly"}, {"measurement": "oral bioavailability", "setting": "[10]", "value": "low"}, {"measurement": "brain/plasma concentration ratio", "setting": "[11]", "value": 0.8}, {"measurement": "IL-1β levels", "setting": "[12]", "value": "significantly reduce"}, {"measurement": "IL-10 levels", "setting": "[12]", "value": "increased substantially"}, {"measurement": "TNF-α levels", "setting": "[12]", "value": "significantly reduce"}]}]}
